# Source: patent publication US20160145257A1, “SUBSTITUTED XANTHINES AND METHODS OF USE THEREOF” (Hydra Biosciences, Inc., priority 2013, published 2016)
# Counter-ions that a name gives are not always drawn.
# Biological target: T1, hTRPC5 (Homo sapiens, UniProt Q9UL62)
# T1 construct: expressed in transfected cells; host or cells: HEK293 TREx cells with inducible TRPC5 expression
# T1 sequence (Q9UL62 1-973): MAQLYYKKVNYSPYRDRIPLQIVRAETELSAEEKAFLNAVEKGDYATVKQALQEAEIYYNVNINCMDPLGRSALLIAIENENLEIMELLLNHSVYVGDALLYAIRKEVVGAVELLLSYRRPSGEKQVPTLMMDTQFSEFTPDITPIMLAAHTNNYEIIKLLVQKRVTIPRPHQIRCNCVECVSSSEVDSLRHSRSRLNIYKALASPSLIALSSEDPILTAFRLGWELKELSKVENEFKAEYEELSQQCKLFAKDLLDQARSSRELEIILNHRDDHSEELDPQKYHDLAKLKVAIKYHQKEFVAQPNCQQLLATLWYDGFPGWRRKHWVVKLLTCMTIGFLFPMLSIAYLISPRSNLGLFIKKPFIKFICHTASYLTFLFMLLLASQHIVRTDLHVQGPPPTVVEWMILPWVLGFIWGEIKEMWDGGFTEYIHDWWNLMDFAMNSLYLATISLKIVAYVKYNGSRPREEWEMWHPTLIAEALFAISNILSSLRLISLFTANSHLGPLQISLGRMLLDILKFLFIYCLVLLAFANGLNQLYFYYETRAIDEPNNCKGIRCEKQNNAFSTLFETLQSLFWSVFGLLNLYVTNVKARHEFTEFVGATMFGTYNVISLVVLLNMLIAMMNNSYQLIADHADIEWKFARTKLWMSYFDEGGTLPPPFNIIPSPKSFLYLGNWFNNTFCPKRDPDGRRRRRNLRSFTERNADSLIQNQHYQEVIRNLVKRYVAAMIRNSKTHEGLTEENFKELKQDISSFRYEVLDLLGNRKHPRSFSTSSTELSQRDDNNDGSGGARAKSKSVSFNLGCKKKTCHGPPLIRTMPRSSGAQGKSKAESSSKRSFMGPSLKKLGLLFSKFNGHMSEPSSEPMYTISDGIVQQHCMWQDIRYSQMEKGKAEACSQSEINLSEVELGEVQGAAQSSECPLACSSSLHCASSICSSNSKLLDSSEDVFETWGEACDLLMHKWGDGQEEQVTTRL
# Test: Whole-cell patch clamp, block of LaCl3-activated TRPC5 inward current
# Assay type: cell-based
# Conditions: TRPC5-expressing HEK293 TREx cells, 80 μM LaCl3, inward current, IC50 estimated from 5 μM and 500 nM, read-out: hTRPC5 Patch La3+ Inwd (nM) (All Batches)
# Summary of the method: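 Whole-cell recordings in induced TRPC5-expressing HEK293 TREx cells, holding −40 mV, 400 ms ramps −120 to +100 mV every 5 s; current activated by 80 μM external LaCl3 and 1,400 nM pipette free Ca2+ (pH 7.2 internal, 7.4 external). Inward block at −80 mV, with LaCl3 present; IC50 estimated from testing at 5 μM and 500 nM.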
row,SMILES,IC50 [nM]
1,CCCOCCc1nc2c(c(=O)n(C)c(=O)n2C)n1Cc1ccc(CO)cc1 [Compound 151],2000 to 10000
2,"CNCc1cccc(Oc2nc3c(c(=O)n(C)c(=O)n3C)n2Cc2cccc(Cl)c2)c1 [Compound 152, hydrochloride]",2000 to 10000
3,"CN(C)Cc1cccc(Oc2nc3c(c(=O)n(C)c(=O)n3C)n2Cc2cccc(Cl)c2)c1 [Compound 153, 7-(3-Chlorobenzyl)-8-(3-((dimethylamino)methyl)phenoxy)-1,3-dimethyl-1H-purine-2,6(3H,7H)-dione hydrochloride]",2000 to 10000
4,"CCOc1nc2c(c(=O)n(C)c(=O)n2C)n1Cc1cccc(Cl)c1 [Compound 154, 7-(3-Chlorobenzyl)-8-ethoxy-1,3-dimethyl-1H-purine-2,6(3H,7H)-dione]",2000 to 10000
5,"CCc1coc(CSc2nc3c(c(=O)n(C)c(=O)n3C)n2Cc2ccc(F)cc2)n1 [Compound 156, 8-((4-ethyloxazol-2-yl)methylthio)-7-(4-fluorobenzyl)-1,3-dimethyl-1H-purine-2,6(3H,7H)-dione]",100 to 500
6,"CCc1coc(CSc2nc3c(c(=O)n(C)c(=O)n3C)n2Cc2ccc(Br)cc2)n1 [Compound 157, 7-(4-bromobenzyl)-8-((4-ethyloxazol-2-yl)methylthio)-1,3-dimethyl-1H-purine-2,6(3H,7H)-dione]",< 100
7,CCCOCCc1nc2c(c(=O)n(C)c(=O)n2C)n1Cc1ccc(C(C)=O)cc1 [Compound 158],2000 to 10000
8,CCCOCCc1nc2c(c(=O)n(C)c(=O)n2C)n1Cc1cccc(C(C)=O)c1 [Compound 159],2000 to 10000
9,"COc1cccc(Cn2c(Oc3cccc(OC(F)(F)F)c3)nc3c2c(=O)n(C)c(=O)n3C)c1 [Compound 160, 7-(3-methoxybenzyl)-1,3-dimethyl-8-(3-(trifluoromethoxy)phenoxy)-1H-purine-2,6(3H,7H)-dione]",100 to 500
10,"CCCC(=O)c1cccc(Cc2nc3c(c(=O)n(C)c(=O)n3C)n2Cc2cccc(Br)c2)c1 [Compound 161, 7-(3-bromobenzyl)-8-(3-butyrylbenzyl)-1,3-dimethyl-1H-purine-2,6(3H,7H)-dione]",2000 to 10000
11,"CNCc1cccc(Oc2nc3c(c(=O)n(C)c(=O)n3C)n2Cc2ccc(Cl)cc2)c1 [Compound 163, 7-(4-Chlorobenzyl)-1,3-dimethyl-8-(3-((methylaminol)methyl)phenoxy)-1H-purine-2,6(3H,7H)-dione hydrochloride]",2000 to 10000
12,"CN(C)Cc1cccc(Oc2nc3c(c(=O)n(C)c(=O)n3C)n2Cc2ccc(Cl)cc2)c1 [Compound 164, 7-(4-Chlorobenzyl)-8-(3-((dimethylaminol)methyl)phenoxy)-1,3-dimethyl-1H-purine-2,6(3H,7H)-dione hydrochloride]",2000 to 10000
13,CCC(CO)NC(=O)C(C)Cc1nc2c(c(=O)n(C)c(=O)n2C)n1Cc1cccc(Br)c1 (centres unmarked) [Compound 165],2000 to 10000
14,"Cn1c(=O)c2c(nc(Oc3cccc(OC(F)(F)F)c3)n2Cc2cccc(OC(F)(F)F)c2)n(C)c1=O [Compound 166, 1,3-dimethyl-7-(3-(trifluoromethoxy)benzyl)-8-(3-(trifluoromethoxy)phenoxy)-1H-purine-2,6(3H,7H)-dione]",100 to 500
15,"Cc1cccc(Cn2c(Oc3cccc(OC(F)(F)F)c3)nc3c2c(=O)n(C)c(=O)n3C)c1 [Compound 167, 1,3-dimethyl-7-(3-methylbenzyl)-8-(3-(trifluoromethoxy)phenoxy)-1H-purine-2,6(3H,7H)-dione]",< 100
16,"Cn1c(=O)c2c(nc(Oc3cccc(OC(F)(F)F)c3)n2Cc2cccc(Cl)c2)n(C)c1=O [Compound 168, 7-(3-chlorobenzyl)-1,3-dimethyl-8-(3-(trifluoromethoxy)phenoxy)-1H-purine-2,6(3H,7H)-dione]",100 to 500
17,"CCc1coc(CSc2nc3c(c(=O)n(C)c(=O)n3C)n2Cc2ccc(C#N)cc2)n1 [Compound 169, 4-((8-((4-ethyloxazol-2-yl)methylthio)-1,3-dimethyl-2,6-dioxo-2,3-dihydro-1H-purin-7(6H)-yl)methyl)benzonitrile]",1000 to 2000
18,"CCc1coc(CSc2nc3c(c(=O)n(C)c(=O)n3C)n2Cc2cccc(C#N)c2)n1 [Compound 170, 3-((8-((4-ethyloxazol-2-yl)methylthio)-1,3-dimethyl-2,6-dioxo-2,3-dihydro-1H-purin-7(6H)-yl)methyl)benzonitrile]",2000 to 10000
19,COc1cccc(Cn2c(Oc3ccc(-c4ccccc4)nc3)nc3c2c(=O)n(C)c(=O)n3C)c1 [Compound 171],2000 to 10000

# Next, values leading:
row,IC50 [nM],SMILES
1,2000 to 10000,Cn1c(=O)c2c(nc(Nc3cccc(C(F)(F)F)c3)n2Cc2cccc(Br)c2)n(C)c1=O [Compound 172]
2,2000 to 10000,"CCCC(O)c1cccc(Oc2nc3c(c(=O)n(C)c(=O)n3C)n2Cc2cccc(Br)c2)c1 (centres unmarked) [Compound 173, 7-(3-bromobenzyl)-8-(3-(1-hydroxybutyl)phenoxy)-1,3-dimethyl-1H-purine-2,6(3H,7H)-dione]"
3,2000 to 10000,"CCCCc1cccc(Oc2nc3c(c(=O)n(C)c(=O)n3C)n2Cc2cccc(Br)c2)c1 [Compound 174, 7-(3-bromobenzyl)-8-(3-butylphenoxy)-1,3-dimethyl-1H-purine-2,6(3H,7H)-dione]"
4,100 to 500,"Cc1ccc(Cn2c(Oc3cccc(OC(F)(F)F)c3)nc3c2c(=O)n(C)c(=O)n3C)cc1 [Compound 178, 1,3-dimethyl-7-(4-methylbenzyl)-8-(3-(trifluoromethoxy)phenoxy)-1H-purine-2,6(3H,7H)-dione]"
5,100 to 500,"Cn1c(=O)c2c(nc(Oc3cccc(C(F)(F)F)c3)n2Cc2cccc3ccccc23)n(C)c1=O [Compound 179, 1,3-dimethyl-7-(naphthalen-1-ylmethyl)-8-(3-(trifluoromethyl)phenoxy)-1H-purine-2,6(3H,7H)-dione]"
6,2000 to 10000,"CCc1coc(CSc2nc3c(c(=O)n(C)c(=O)n3C)n2Cc2cccc(C(C)=O)c2)n1 [Compound 180, 7-(3-acetylbenzyl)-8-((4-ethyloxazol-2-yl)methylthio)-1,3-dimethyl-1H-purine-2,6(3H,7H)-dione]"
7,2000 to 10000,"CCc1coc(CSc2nc3c(c(=O)n(C)c(=O)n3C)n2Cc2ccc(C(C)=O)cc2)n1 [Compound 181, 7-(4-acetylbenzyl)-8-((4-ethyloxazol-2-yl)methylthio)-1,3-dimethyl-1H-purine-2,6(3H,7H)-dione]"
8,2000 to 10000,CN(C)Cc1cccc(Cn2c(Oc3cccc(OC(F)(F)F)c3)nc3c2c(=O)n(C)c(=O)n3C)c1 [Compound 183]
9,1000 to 2000,"Cn1c(=O)c2c(nc(Oc3cncc(C(F)(F)F)c3)n2Cc2ccc(Cl)cc2)n(C)c1=O [Compound 184, 7-(4-chlorobenzyl)-1,3-dimethyl-8-(5-(trifluoromethyl)pyridin-3-yloxy)-1H-purine-2,6(3H,7H)-dione]"
10,2000 to 10000,"Cn1c(=O)c2c(nc(Oc3cccc(C(F)(F)F)c3)n2Cc2ccc3ccccc3c2)n(C)c1=O [Compound 185, 1,3-dimethyl-7-(naphthalen-2-ylmethyl)-8-(3-(trifluoromethyl)phenoxy)-1H-purine-2,6(3H,7H)-dione]"
11,2000 to 10000,CN(C)Cc1ccc(Cn2c(Oc3cccc(OC(F)(F)F)c3)nc3c2c(=O)n(C)c(=O)n3C)cc1 [Compound 186]
12,100 to 500,"CC(c1ccc(Cl)cc1)n1c(Oc2cccc(C(F)(F)F)c2)nc2c1c(=O)n(C)c(=O)n2C (centres unmarked) [Compound 187, 7-(1-(4-chlorophenyl)ethyl)-1,3-dimethyl-8-(3-(trifluoromethyl)phenoxy)-1H-purine-2,6(3H,7H)-dione]"
13,2000 to 10000,"COc1cccc(Cn2c(Oc3ccc(-c4ccccn4)cc3)nc3c2c(=O)n(C)c(=O)n3C)c1 [Compound 189, 7-(3-methoxybenzyl)-1,3-dimethyl-8-(4-(pyridin-2-yl)phenoxy)-1H-purine-2,6(3H,7H)-dione]"
14,2000 to 10000,Cn1c(=O)c2c(nc(Oc3cccc(C(F)(F)F)c3)n2S(=O)(=O)c2ccc(Cl)cc2)n(C)c1=O [Compound 190]
15,< 100,"Cn1c(=O)c2c(nc(Oc3cccc(OC(F)(F)F)c3)n2Cc2ccc3ccccc3c2)n(C)c1=O [Compound 191, 1,3-dimethyl-7-(naphthalen-2-ylmethyl)-8-(3-(trifluoromethoxy)phenoxy)-1H-purine-2,6(3H,7H)-dione]"
16,100 to 500,"Cn1c(=O)c2c(nc(Sc3cccc(C(F)(F)F)c3)n2Cc2ccc(Cl)cc2)n(C)c1=O [Compound 192, 7-(4-chlorobenzyl)-1,3-dimethyl-8-(3-(trifluoromethyl)phenylthio)-1H-purine-2,6(3H,7H)-dione]"
